ChEMBL document CHEMBL1201861, “Genomics of Drug Sensitity in Cancer screening data, Wellcome Trust Sanger Institute”

Experiments:
Assay in all cases: cells
EW-11 = assay type: functional, cell-based, Homo sapiens; conditions: Homo sapiens, EW-11;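 further: growth inhibition of human EW-11 cells, measured with a cell viability assay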
Description: SANGER: Inhibition of human EW-11 cell growth in a cell viability assay.

COLO-800 = assay type: functional, cell-based, Homo sapiens; conditions: Homo sapiens, COLO-800;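 further: growth inhibition of COLO-800 cells, read out with a cell viability assay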
Description: SANGER: Inhibition of human COLO-800 cell growth in a cell viability assay.

MZ7-mel = assay type: functional, cell-based, Homo sapiens; conditions: Homo sapiens, MZ7-mel;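 further: growth inhibition of human MZ7-mel cells, measured by a cell viability assay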
Description: SANGER: Inhibition of human MZ7-mel cell growth in a cell viability assay.

ATN-1 = assay type: functional, cell-based; conditions: Homo sapiens;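 further: growth inhibition of human ATN-1 cells, read out with a cell viability assay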
Description: SANGER: Inhibition of human ATN-1 cell growth in a cell viability assay.

TE-5 = assay type: functional, cell-based, Homo sapiens; conditions: Homo sapiens, TE-5;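 further: inhibition of cell growth, read out by a cell viability assay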
Description: SANGER: Inhibition of human TE-5 cell growth in a cell viability assay.

L-428 = assay type: functional, cell-based; conditions: Homo sapiens
Description: SANGER: Inhibition of human L-428 cell growth in a cell viability assay.

JVM-3 = assay type: functional, cell-based; conditions: Homo sapiens;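 further: growth inhibition of human JVM-3 cells, read out with a cell viability assay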
Description: SANGER: Inhibition of human JVM-3 cell growth in a cell viability assay.

HDLM-2 = assay type: functional, cell-based; conditions: Homo sapiens;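 further: cell viability assay measuring suppression of HDLM-2 proliferation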
Description: SANGER: Inhibition of human HDLM-2 cell growth in a cell viability assay.

KY821 = assay type: functional, cell-based; conditions: Homo sapiens;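 further: growth inhibition of human KY821 cells, read out by a cell viability assay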
LNCaP-Clone-FGC = assay type: functional, cell-based, Homo sapiens; conditions: Homo sapiens, LNCaP-Clone-FGC
DB = assay type: functional, cell-based; conditions: Homo sapiens
Description: SANGER: Inhibition of human DB cell growth in a cell viability assay.

TE-9 = assay type: functional, cell-based, Homo sapiens; conditions: Homo sapiens, TE-9;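 further: cell growth inhibition, measured with a cell viability readout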
Description: SANGER: Inhibition of human TE-9 cell growth in a cell viability assay.

MHH-PREB-1 = assay type: functional, cell-based; conditions: Homo sapiens;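 further: cell viability assay measuring inhibition of proliferation of human MHH-PREB-1 cells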
Description: SANGER: Inhibition of human MHH-PREB-1 cell growth in a cell viability assay.

UACC-257 = assay type: functional, cell-based, Homo sapiens; conditions: Homo sapiens, UACC-257
Description: SANGER: Inhibition of human UACC-257 cell growth in a cell viability assay.

COLO-824 = assay type: functional, cell-based, Homo sapiens; conditions: Homo sapiens, COLO-824
Description: SANGER: Inhibition of human COLO-824 cell growth in a cell viability assay.

LS-513 = assay type: functional, cell-based, Homo sapiens; conditions: Homo sapiens, LS-513
Description: SANGER: Inhibition of human LS-513 cell growth in a cell viability assay.

DJM-1 = assay type: functional, cell-based, Homo sapiens; conditions: Homo sapiens, DJM-1;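 further: growth inhibition of human DJM-1 cells, read out by a cell viability assay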
Description: SANGER: Inhibition of human DJM-1 cell growth in a cell viability assay.

NB17 = assay type: functional, cell-based; conditions: Homo sapiens;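 further: growth inhibition of NB17 cells, read out with a cell viability assay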
Description: SANGER: Inhibition of human NB17 cell growth in a cell viability assay.

HH = assay type: functional, cell-based; conditions: Homo sapiens
Description: SANGER: Inhibition of human HH cell growth in a cell viability assay.

PSN1 = assay type: functional, cell-based, Homo sapiens; conditions: Homo sapiens, PSN1;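 further: suppression of growth of human PSN1 cells, read out by a cell viability assay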
Description: SANGER: Inhibition of human PSN1 cell growth in a cell viability assay.

HCC1187 = assay type: functional, cell-based, Homo sapiens; conditions: Homo sapiens, HCC1187;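 further: growth inhibition of HCC1187 cells, read out with a cell viability assay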
Description: SANGER: Inhibition of human HCC1187 cell growth in a cell viability assay.

NB7 = assay type: functional, cell-based; conditions: Homo sapiens;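 further: growth inhibition of NB7 cells, read out with a cell viability assay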
Description: SANGER: Inhibition of human NB7 cell growth in a cell viability assay.

NCI-H1770 = assay type: functional, cell-based; conditions: Homo sapiens;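 further: growth inhibition of NCI-H1770 cells determined with a viability readout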
Description: SANGER: Inhibition of human NCI-H1770 cell growth in a cell viability assay.

NCI-H1648 = assay type: functional, cell-based, Homo sapiens; conditions: Homo sapiens, NCI-H1648;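 further: cell viability assay measuring inhibition of NCI-H1648 cell growth, from the Sanger screening data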
Description: SANGER: Inhibition of human NCI-H1648 cell growth in a cell viability assay.

ES5 = assay type: functional, cell-based, Homo sapiens; conditions: Homo sapiens, ES5;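 further: growth inhibition of human ES5 cells, read out by a cell viability assay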
TK-10 = assay type: functional, cell-based, Homo sapiens; conditions: Homo sapiens, TK-10;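 further: growth inhibition of TK-10 cells, read out in a cell viability assay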
Description: SANGER: Inhibition of human TK10 cell growth in a cell viability assay.

BB30-HNC = assay type: functional, cell-based, Homo sapiens; conditions: Homo sapiens, BB30-HNC;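 further: growth inhibition of the cultured cell line, read out by a cell viability assay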
Description: SANGER: Inhibition of human BB30-HNC cell growth in a cell viability assay.

OCI-AML2 = assay type: functional, cell-based; conditions: Homo sapiens;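 further: growth inhibition of OCI-AML2 cells, read out with a cell viability assay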
Description: SANGER: Inhibition of human OCI-AML2 cell growth in a cell viability assay.

NOMO-1 = assay type: functional, cell-based; conditions: Homo sapiens;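 further: growth inhibition of human NOMO-1 cells measured by a cell viability assay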
Description: SANGER: Inhibition of human NOMO-1 cell growth in a cell viability assay.

K562 = assay type: functional, cell-based; conditions: Homo sapiens
Description: SANGER: Inhibition of human K-562 cell growth in a cell viability assay.

LS-411N = assay type: functional, cell-based, Homo sapiens; conditions: Homo sapiens, LS-411N

SMILES | IC50 (EW-11) [µM] | IC50 (COLO-800) [µM] | IC50 (MZ7-mel) [µM] | IC50 (ATN-1) [µM] | IC50 (TE-5) [µM] | IC50 (L-428) [µM] | IC50 (JVM-3) [µM] | IC50 (HDLM-2) [µM] | IC50 (KY821) [µM] | IC50 (LNCaP-Clone-FGC) [µM] | IC50 (DB) [µM] | IC50 (TE-9) [µM] | IC50 (MHH-PREB-1) [µM] | IC50 (UACC-257) [µM] | IC50 (COLO-824) [µM] | IC50 (LS-513) [µM] | IC50 (DJM-1) [µM] | IC50 (NB17) [µM] | IC50 (HH) [µM] | IC50 (PSN1) [µM] | further results
C=C1C(=O)O[C@@H]2C3O[C@]3(C)CC/C=C(\C)CC[C@@H]12 (stereo not given in full) | > 5 | > 5 | > 5 | > 5 | > 5 | > 5 | > 5 | > 5 | > 5 | > 5 | > 5 | > 5 | > 5 | > 5 | > 5 | > 5 | > 5 | 1.72 | > 5 | > 5 | IC50 (HCC1187): > 5 µM; IC50 (NB7): > 5 µM; IC50 (NCI-H1770): > 5 µM; IC50 (NCI-H1648): > 5 µM; IC50 (ES5): > 5 µM; IC50 (TK-10): > 5 µM; IC50 (BB30-HNC): > 5 µM; IC50 (OCI-AML2): > 5 µM; IC50 (NOMO-1): > 5 µM; IC50 (K562): > 5 µM; IC50 (LS-411N): > 5 µM
CC1=C2C[C@H]3[C@@H](CC=C4C[C@@H](O)CC[C@@]43C)[C@@H]2CC[C@]12O[C@@H]1C[C@H](C)CN[C@H]1[C@H]2C [CYCLOPAMINE] | > 16 | > 16 | > 16 | > 16 | > 16 | > 16 | > 16 | > 16 | > 16 | > 16 | > 16 | > 16 | > 16 | > 16 | > 16 | 11.4 | > 16 | > 16 | > 16 | > 16 | IC50 (HCC1187): > 16 µM; IC50 (NB7): > 16 µM; IC50 (NCI-H1770): > 16 µM; IC50 (NCI-H1648): > 16 µM; IC50 (ES5): > 16 µM; IC50 (TK-10): > 16 µM; IC50 (BB30-HNC): > 16 µM; IC50 (OCI-AML2): > 16 µM; IC50 (NOMO-1): > 16 µM; IC50 (K562): > 16 µM; IC50 (LS-411N): > 16 µM
CS(=O)(=O)CCNCc1ccc(-c2ccc3ncnc(Nc4ccc(OCc5cccc(F)c5)c(Cl)c4)c3c2)o1 [LAPATINIB] | > 2 | > 2 | > 2 | > 2 | > 2 | > 2 | > 2 | > 2 | > 2 | > 2 | > 2 | 0.745 | > 2 | > 2 | > 2 | > 2 | > 2 | > 2 | > 2 | > 2 | IC50 (HCC1187): > 2 µM; IC50 (NB7): > 2 µM; IC50 (NCI-H1770): > 2 µM; IC50 (NCI-H1648): 0.0254 µM; IC50 (ES5): > 2 µM; IC50 (TK-10): > 2 µM; IC50 (BB30-HNC): 0.247 µM; IC50 (OCI-AML2): > 2 µM; IC50 (NOMO-1): > 2 µM; IC50 (K562): > 2 µM; IC50 (LS-411N): > 2 µM
CCc1nc(N)nc(N)c1-c1ccc(Cl)cc1 [PYRIMETHAMINE] | > 20 | > 20 | 7.56 | 1.78 | > 20 | > 20 | > 20 | > 20 | > 20 | > 20 | > 20 | > 20 | > 20 | 3.84 | > 20 | > 20 | > 20 | > 20 | > 20 | 2.86 | IC50 (HCC1187): > 20 µM; IC50 (NB7): > 20 µM; IC50 (NCI-H1770): > 20 µM; IC50 (NCI-H1648): > 20 µM; IC50 (ES5): > 20 µM; IC50 (TK-10): 7.42 µM; IC50 (BB30-HNC): > 20 µM; IC50 (OCI-AML2): 8.5 µM; IC50 (NOMO-1): > 20 µM; IC50 (K562): > 20 µM; IC50 (LS-411N): 0.837 µM
O=C(/C=C/c1ccccc1)NC(NC(=S)Nc1cccc2cccnc12)C(Cl)(Cl)Cl (stereo not given) [SALUBRINAL] | > 16 | > 16 | > 16 | 12 | > 16 | > 16 | > 16 | > 16 | > 16 | > 16 | > 16 | > 16 | 6.79 | > 16 | > 16 | > 16 | > 16 | > 16 | > 16 | > 16 | IC50 (HCC1187): > 16 µM; IC50 (NB7): > 16 µM; IC50 (NCI-H1770): > 16 µM; IC50 (NCI-H1648): > 16 µM; IC50 (ES5): > 16 µM; IC50 (TK-10): > 16 µM; IC50 (BB30-HNC): > 16 µM; IC50 (OCI-AML2): 15.9 µM; IC50 (NOMO-1): > 16 µM; IC50 (K562): 11 µM; IC50 (LS-411N): > 16 µM
CNC(=O)c1cc(Oc2ccc(NC(=O)Nc3ccc(Cl)c(C(F)(F)F)c3)cc2)ccn1 [SORAFENIB] | > 4 | > 4 | 3.66 | > 4 | 3.13 | > 4 | > 4 | > 4 | > 4 | > 4 | > 4 | > 4 | > 4 | > 4 | > 4 | > 4 | > 4 | > 4 | > 4 | > 4 | IC50 (HCC1187): > 4 µM; IC50 (NB7): > 4 µM; IC50 (NCI-H1770): > 4 µM; IC50 (NCI-H1648): > 4 µM; IC50 (ES5): > 4 µM; IC50 (TK-10): > 4 µM; IC50 (OCI-AML2): > 4 µM; IC50 (NOMO-1): > 4 µM; IC50 (K562): > 4 µM; IC50 (LS-411N): > 4 µM
